Results reported in patent US20050154230A1, “Urea derivatives” (Bayer HealthCare AG, priority 2001, published 2005).
Like-named read-outs stand apart in the source and are kept apart here.

Tests used:
human VR1 = molecular target: T1, human VR1 (Homo sapiens, UniProt Q8NER1); assay: Capsaicin-induced Ca2+ influx in the human VR1-transfected CHO cell line (Assay 1); format: cell-based
T1 construct: expressed in transfected cells
How it was run: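 CHO cells expressing human VR1 with an aequorin reporter were treated with compound or vehicle for 20 min at 25° C. Capsaicin-induced Ca^2+ influx was then measured on an FDSS-3000. Integral R was calculated and compared with controls.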

[1] = human VR1-CHOluc9aeq cells, 10 nM capsaicin, compound purity about 40 to 90%, read-out: hVR1 class

T1 sequence (Q8NER1 whole entry): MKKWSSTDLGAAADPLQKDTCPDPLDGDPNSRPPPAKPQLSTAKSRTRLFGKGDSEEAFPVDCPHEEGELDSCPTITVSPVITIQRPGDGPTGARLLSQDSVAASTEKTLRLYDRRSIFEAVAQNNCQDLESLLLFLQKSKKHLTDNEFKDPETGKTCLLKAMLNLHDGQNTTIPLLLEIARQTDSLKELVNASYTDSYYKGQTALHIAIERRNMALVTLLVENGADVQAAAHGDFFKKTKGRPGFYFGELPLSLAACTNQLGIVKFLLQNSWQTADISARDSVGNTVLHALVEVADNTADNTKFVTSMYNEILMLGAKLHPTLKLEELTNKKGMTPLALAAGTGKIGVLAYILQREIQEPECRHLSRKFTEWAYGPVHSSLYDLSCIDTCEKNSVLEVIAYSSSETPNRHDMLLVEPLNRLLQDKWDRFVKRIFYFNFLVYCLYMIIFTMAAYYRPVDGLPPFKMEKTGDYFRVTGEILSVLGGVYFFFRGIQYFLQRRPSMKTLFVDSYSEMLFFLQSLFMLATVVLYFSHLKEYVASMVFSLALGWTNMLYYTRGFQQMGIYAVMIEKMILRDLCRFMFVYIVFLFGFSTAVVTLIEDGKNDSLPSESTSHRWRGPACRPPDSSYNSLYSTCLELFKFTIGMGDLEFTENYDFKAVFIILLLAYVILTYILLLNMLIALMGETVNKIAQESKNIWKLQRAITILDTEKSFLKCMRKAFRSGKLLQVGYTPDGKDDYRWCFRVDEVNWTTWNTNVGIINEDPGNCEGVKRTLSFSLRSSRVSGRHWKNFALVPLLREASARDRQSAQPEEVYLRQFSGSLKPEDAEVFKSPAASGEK

Q: Which IC50 (human VR1; [1]) does the source give for O=C(Nc1ccc(Cl)c(C(F)(F)F)c1)Nc1cccc(-c2ccccc2)c1CCO [Example 257] here?
A: Its IC50 is 100 to 500 nM.

Q: And the melting point?
A: The melting point was 173 °C.

Q: Which IC50 (human VR1; [1]) does the source give for CC(=O)c1cccc(NC(=O)Nc2ccccc2CCO)c1 [Example 117] here?
A: The IC50 was 500 to 1000 nM.

Q: What about the melting point of the same compound?
A: The melting point was 177 °C.

Q: What does the source list for COc1cc(NC(=O)Nc2ccccc2CCO)cc(C(F)(F)F)c1 [Example 188]?
A: IC50 (human VR1; [1]): < 100 nM; melting point: 161 to 162 °C

Q: Which results are given for O=C(Nc1cccc(-c2ccc([N+](=O)[O-])cc2)c1)Nc1ccccc1CCO [Example 229]?
A: IC50 (human VR1; [1]): < 100 nM; melting point: 197 to 198 °C

Q: With Cc1cccc(C)c1NC(=O)Nc1ccccc1CCO [Example 116] as the compound, how does the IC50 (human VR1; [1]) read?
A: The IC50 was 500 to 1000 nM.

Q: What about the melting point of the same compound?
A: The melting point was 226 °C.

Q: With O=C(Nc1ccc2c(c1)OCO2)Nc1ccccc1CCO [Example 220] as the compound, how does the IC50 (human VR1; [1]) read?
A: Its IC50 is 500 to 1000 nM.

Q: What about the melting point of the same compound?
A: Its melting point is 183 to 184 °C.

Q: What does the source list for O=C(Nc1cc([N+](=O)[O-])ccc1F)Nc1ccccc1CCO [Example 112]?
A: IC50 (human VR1; [1]): 500 to 1000 nM; melting point: 183 °C

Q: With Cc1ccc(CNC(=O)Nc2ccccc2CCO)cc1 [Example 125] as the compound, how does the IC50 (human VR1; [1]) read?
A: The IC50 was 500 to 1000 nM.

Q: And the melting point?
A: Its melting point is 181 to 183 °C.

Q: With O=C(Nc1ccccc1CCO)Nc1cccc2c1Cc1ccccc1-2 [Example 253] as the compound, how does the IC50 (human VR1; [1]) read?
A: Its IC50 is < 100 nM.

Q: What about the melting point of the same compound?
A: Its melting point is 182 to 183 °C.

Q: For O=C(NCc1ccccc1F)Nc1ccccc1CCO [Example 119], which IC50 (human VR1; [1]) is on record?
A: The IC50 was 500 to 1000 nM.

Q: And the melting point?
A: The melting point was 141 to 143 °C.

Q: What does the source list for O=C(Nc1cccc(-c2cc(Cl)cc(Cl)c2)c1)Nc1ccccc1CCO [Example 217]?
A: IC50 (human VR1; [1]): < 100 nM; melting point: 184 °C

Q: Which IC50 (human VR1; [1]) does the source give for O=C(Nc1ccccc1CCO)Nc1ccccc1Oc1ccccc1 [Example 160] here?
A: Its IC50 is 500 to 1000 nM.

Q: What about the melting point of the same compound?
A: Its melting point is 190 to 191 °C.

Q: Which IC50 (human VR1) does the source give for COc1cc(CNC(=O)Nc2cccc3ccccc23)ccc1O [Example 70] here?
A: The IC50 was < 100 nM.

Q: And the melting point?
A: Its melting point is 149 °C.

Q: With Cc1cccc(CNC(=O)Nc2ccccc2CCO)c1 [Example 124] as the compound, how does the IC50 (human VR1; [1]) read?
A: The IC50 was 500 to 1000 nM.

Q: And the melting point?
A: The melting point was 148 to 150 °C.

Q: With O=C(Nc1ccc(Br)c(C(F)(F)F)c1)Nc1ccccc1CCO [Example 185] as the compound, how does the IC50 (human VR1; [1]) read?
A: The IC50 was < 100 nM.

Q: And the melting point?
A: Its melting point is 161 to 164 °C.

Q: Which IC50 (human VR1; [1]) does the source give for COc1ccc(Cl)cc1-c1cccc(NC(=O)Nc2ccccc2CCO)c1 [Example 227] here?
A: Its IC50 is < 100 nM.

Q: What about the melting point of the same compound?
A: The melting point was 141 to 143 °C.

Q: Which IC50 (human VR1; [1]) does the source give for Cc1ccc2cc(NC(=O)Nc3ccccc3CCO)ccc2n1 [Example 165] here?
A: Its IC50 is 500 to 1000 nM.

Q: And the melting point?
A: Its melting point is 207 °C.

Q: What does the source list for O=C(Nc1cccc(-c2cccs2)c1)Nc1ccccc1CCO [Example 203]?
A: IC50 (human VR1; [1]): < 100 nM; melting point: 195 °C

Q: For O=C(Nc1ccc(Nc2ccccc2)cc1)Nc1ccccc1CCO [Example 159], which IC50 (human VR1; [1]) is on record?
A: The IC50 was 500 to 1000 nM.

Q: And the melting point?
A: Its melting point is 150 to 151 °C.

Q: Which results are given for COc1ccc(-c2ccccc2)cc1NC(=O)Nc1ccccc1CCO [Example 173]?
A: IC50 (human VR1; [1]): 100 to 500 nM; melting point: 178 to 180 °C

Q: With O=C(NCc1cccc(F)c1)Nc1ccccc1CCO [Example 120] as the compound, how does the IC50 (human VR1; [1]) read?
A: The IC50 was 500 to 1000 nM.

Q: And the melting point?
A: The melting point was 160 to 162 °C.

Q: What does the source list for CN(C)c1ccc(NC(=O)Nc2ccccc2CCO)cc1 [Example 122]?
A: IC50 (human VR1; [1]): 500 to 1000 nM; melting point: 187 to 188 °C

Q: Which results are given for O=C(Nc1cccc(-c2cccc(C(F)(F)F)c2)c1)Nc1ccccc1CCO [Example 238]?
A: IC50 (human VR1; [1]): < 100 nM; melting point: 180 °C

Q: For O=C(Nc1cccc(-c2ccccc2C(F)(F)F)c1)Nc1ccccc1CCO [Example 241], which IC50 (human VR1; [1]) is on record?
A: Its IC50 is < 100 nM.

Q: And the melting point?
A: Its melting point is 153 °C.

Q: With O=C(Nc1cccc(-c2cccc3ccccc23)c1)Nc1ccccc1CCO [Example 214] as the compound, how does the IC50 (human VR1; [1]) read?
A: Its IC50 is < 100 nM.

Q: And the melting point?
A: The melting point was 113 °C.

Q: Which IC50 (human VR1; [1]) does the source give for Cc1ccc(-c2cccc(NC(=O)Nc3ccccc3CCO)c2)cc1Cl [Example 248] here?
A: The IC50 was < 100 nM.

Q: And the melting point?
A: Its melting point is 194 °C.

Q: With COc1cc(CNC(=O)Nc2ccccc2[N+](=O)[O-])ccc1O [Example 58] as the compound, how does the IC50 (human VR1; [1]) read?
A: Its IC50 is 500 to 1000 nM.

Q: And the melting point?
A: Its melting point is 180 °C.

Q: What does the source list for COc1cc(CNC(=O)Nc2cccc(C)c2)ccc1O [Example 82]?
A: IC50 (human VR1): 100 to 500 nM; melting point: 181 °C

Q: What does the source list for O=C(NCc1ccc(F)cc1)Nc1ccccc1CCO [Example 121]?
A: IC50 (human VR1; [1]): 500 to 1000 nM; melting point: 165 to 167 °C

Q: Which results are given for O=C(Nc1cccc(C(F)(F)F)c1)Nc1ccccc1CCO [Example 107]?
A: IC50 (human VR1; [1]): 100 to 500 nM; melting point: 173 to 175 °C

Q: Which IC50 (human VR1; [1]) does the source give for Cc1cc(C)c(NC(=O)Nc2ccccc2CCO)c(C)c1 [Example 115] here?
A: The IC50 was 500 to 1000 nM.

Q: What about the melting point of the same compound?
A: The melting point was 243 °C.

Q: With COc1cc(CNC(=O)Nc2ccc(Cl)c([N+](=O)[O-])c2)ccc1O [Example 64] as the compound, how does the IC50 (human VR1; [1]) read?
A: The IC50 was 100 to 500 nM.

Q: What about the melting point of the same compound?
A: The melting point was 180 °C.

Q: Which IC50 (human VR1; [1]) does the source give for O=C(Nc1ccc(N2CCCCC2)cc1)Nc1ccccc1CCO [Example 168] here?
A: The IC50 was 500 to 1000 nM.

Q: What about the melting point of the same compound?
A: The melting point was 188 °C.

Q: What does the source list for O=C(Nc1cccc(-c2ccoc2)c1)Nc1ccccc1CCO [Example 247]?
A: IC50 (human VR1; [1]): < 100 nM; melting point: 190 °C

Q: For CC(NC(=O)Nc1ccccc1CCO)c1cccc2ccccc12 (stereo not shown) [Example 155], which IC50 (human VR1; [1]) is on record?
A: The IC50 was 500 to 1000 nM.

Q: What about the melting point of the same compound?
A: The melting point was 176 °C.
